Literature values as cited in US20250161331A1, “ANTI-INFLAMMATORY DRUG-CANNABINOID-COMPRISING NANOEMULSIONS AND METHODS OF USING THE SAME” (SGN Nanopharma Inc., priority 2022, published 2025).
Where two headings read alike, the source gives them in different places.

## C=C(C)[C@@H]1CCC(C)=C[C@H]1c1c(O)cc(CCCCC)cc1O [CBD, Cannabidiol]
Cannabis oil formulations, same timeframe (3-7 days)
  CBD concentrations decreased: up to 38%
Solution as a tea, room temperature, 3-7 days
  CBD concentrations decreased: ≤ 50%
